From patent US20080119515A1, “Heterocyclic Kinase Inhibitors: Methods of Use and Synthesis” (priority 2003, published 2008) come the findings set out here.

The IC50 is the concentration that inhibits the measured activity by half.

SMILES strings stand for the structures.

For the assay, the target named is T1, ZAP-70 (Homo sapiens, UniProt P43403).
T1 sequence (P43403 1-619): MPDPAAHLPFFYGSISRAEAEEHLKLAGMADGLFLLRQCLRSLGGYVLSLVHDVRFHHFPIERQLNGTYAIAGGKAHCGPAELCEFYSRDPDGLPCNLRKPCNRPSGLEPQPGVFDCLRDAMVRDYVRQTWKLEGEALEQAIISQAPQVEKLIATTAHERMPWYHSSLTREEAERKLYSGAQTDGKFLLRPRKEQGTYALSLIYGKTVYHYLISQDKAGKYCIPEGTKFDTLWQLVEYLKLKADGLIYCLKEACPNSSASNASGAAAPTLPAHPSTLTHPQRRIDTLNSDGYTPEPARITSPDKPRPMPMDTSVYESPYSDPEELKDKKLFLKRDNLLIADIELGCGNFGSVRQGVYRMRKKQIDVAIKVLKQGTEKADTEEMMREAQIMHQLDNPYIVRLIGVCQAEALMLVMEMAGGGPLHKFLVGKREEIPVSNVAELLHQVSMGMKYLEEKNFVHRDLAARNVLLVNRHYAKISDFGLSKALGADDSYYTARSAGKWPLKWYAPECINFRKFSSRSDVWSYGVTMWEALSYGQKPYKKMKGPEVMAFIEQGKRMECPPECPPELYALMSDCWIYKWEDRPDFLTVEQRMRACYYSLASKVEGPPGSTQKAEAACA
The experiment in a line: DELFIA assay (ZAP-70 kinase, phosphorylation of biotinylated poly(glu,tyr)). Type of assay: biochemical. To be noted: ZAP-70 DELFIA, class symbols; read-out: Activity (IC50 in vitro). The procedure, abridged: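 3.1 nM ZAP-70 pre-incubated 10 min at room temperature with compound ([…]) and 62.5 nM biotinylated poly(glu,tyr) in 62.5 mM Mops pH 7.0, 12.5 mM MgCl2, 12.5% glycerol, 6.25% DMSO (pre-incubation concentrations); ATP added from 5 mM stock, 30 min reaction, EDTA stop. Phosphorylation read by DELFIA europium anti-phosphotyrosine fluorescence (340/615).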
`CN(C)c1ccc(Nc2cc(CCc3ccc(F)cc3)nc3ccc(-c4ccc5c(c4)OCO5)cc23)cc1` [Compound 415]: the IC50 was above 10000 nM.
For `O=C(c1cc(NCc2ccc(C(F)(F)F)cc2)nc2ccc(-c3cccc(CO)c3)cc12)N1CCC[C@H]1CN1CCCC1` [Compound 416], the IC50 is above 10000 nM.
The figure for `O=C(c1cc(NCc2ccc(C(F)(F)F)cc2)nc2ccc(-c3ccc(CO)cc3)cc12)N1CCC[C@H]1CN1CCCC1` [Compound 417] is above 10000 nM.
For the molecule `COc1cc(-c2ccc3nc(NCc4ccc(C(F)(F)F)cc4)cc(C(=O)N4CCC[C@H]4CN4CCCC4)c3c2)ccc1O` [Compound 418], the IC50 is above 10000 nM.
On to `O=C(c1cc(NCc2ccc(C(F)(F)F)cc2)nc2ccc(-c3ccc(O)cc3)cc12)N1CCC[C@H]1CN1CCCC1` [Compound 419], for which the IC50 is above 10000 nM.
The figure for `CN(C)C(=O)c1ccc(-c2ccc3nc(NCc4ccc(C(F)(F)F)cc4)cc(C(=O)N4CCC[C@H]4CN4CCCC4)c3c2)cc1` [Compound 420] is above 10000 nM; for `Cn1ccc2cc(-c3ccc4nc(NCc5ccc(C(F)(F)F)cc5)cc(C(=O)N5CCC[C@H]5CN5CCCC5)c4c3)ccc21` [Compound 421] it is above 10000 nM; for `CC(C)(C)/C=C/c1ccc2nc(NCc3ccc(C(F)(F)F)cc3)cc(C(=O)N3CCC[C@H]3CN3CCCC3)c2c1` [Compound 422] it is above 10000 nM.
The figure for `Nc1ccc(-c2ccc3nc(NCc4ccc(C(F)(F)F)cc4)cc(C(=O)N4CCC[C@H]4CN4CCCC4)c3c2)cc1` [Compound 424] is above 10000 nM.
The figure for `O=C(c1cc(NCc2ccc(C(F)(F)F)cc2)nc2ccc(-c3cccc([C@H]4CCNC[C@@H]4O)c3)cc12)N1CCC[C@H]1CN1CCCC1` [Compound 425] is above 10000 nM.
Consider `O=C(c1cc(NCc2ccc(C(F)(F)F)cc2)nc2ccc(-c3ccc(C4CCNC[C@H]4O)cc3)cc12)N1CCC[C@H]1CN1CCCC1` (stereo partly shown) [Compound 426], for which the IC50 is above 10000 nM.
As for `O=C(c1cc(NCc2ccc(C(F)(F)F)cc2)nc2ccc(-c3cccc([C@H]4CNCC[C@@H]4O)c3)cc12)N1CCC[C@H]1CN1CCCC1` [Compound 427], the 50% inhibitory concentration (IC50) was above 10000 nM.
Turning to `O=C(c1cc(Nc2ccc(N3CCNCC3)cc2)nc2ccc(-c3ccc4c(c3)OCO4)cc12)N1CCCC1CN1CCCC1` (stereo not shown) [Compound 428], the IC50 is below 1000 nM.
Take `CN1CCN(c2ccc(Nc3cc(C(=O)N4CCCC4CN4CCCC4)c4cc(-c5ccc6c(c5)OCO6)ccc4n3)cc2)CC1` (stereo not shown) [Compound 429]: the IC50 was below 1000 nM.
As for `O=C(c1cc(Nc2cccc(C3CCNC[C@@H]3O)c2)nc2ccc(-c3ccc4c(c3)OCO4)cc12)N1CCCC1CN1CCCC1` (stereo partly shown) [Compound 430], the IC50 was below 1000 nM.
The figure for `O=C(Cc1cc(C(=O)N2CCC[C@H]2CN2CCCC2)c2cc(-c3ccc4c(c3)OCO4)ccc2n1)c1ccc(C(F)(F)F)cc1` [Compound 431] is 1000 to 10000 nM; for `Nc1cc(-c2ccc3c(c2)OCO3)cc2c(C(=O)N3CCC[C@H]3CN3CCCC3)cc(CCc3ccc(C(F)(F)F)cc3)nc12` [Compound 432] it is below 1000 nM; for `Nc1cc(CCc2ccc(C(F)(F)F)cc2)cc2c(C(=O)N3CCC[C@H]3CN3CCCC3)cc(CCc3ccc(C(F)(F)F)cc3)nc12` [Compound 433] it is below 1000 nM.
The figure for `O=C(c1cc(CCCc2ccccc2)nc2ccc(-c3ccc4c(c3)OCO4)cc12)N1CCC[C@H]1CN1CCCC1` [Compound 434] is below 1000 nM; for `O=C(c1cc(CCCCc2ccccc2)nc2ccc(-c3ccc4c(c3)OCO4)cc12)N1CCC[C@H]1CN1CCCC1` [Compound 435] it is below 1000 nM.
Take `O=C(c1cc(CC(O)c2ccc(C(F)(F)F)cc2)nc2ccc(-c3ccc4c(c3)OCO4)cc12)N1CCC[C@H]1CN1CCCC1` (stereo partly shown) [Compound 436]: the IC50 is below 1000 nM.
Regarding `NCc1ccc(CNc2cc(C(=O)N3CCC[C@H]3CN3CCCC3)c3cc(-c4ccc5c(c4)OCO5)ccc3n2)cc1` [Compound 437], the 50% inhibitory concentration (IC50) is below 1000 nM.
The figure for `CC1CN(c2ccc(Cc3cc(C(=O)N4CCCC4CN4CCCC4)c4cc(-c5ccc6c(c5)OCO6)ccc4n3)cc2)CCN1` (stereo not shown) [Compound 438] is below 1000 nM.
The figure for `O=C(c1cc(Cc2ccc(N3CCNCC3)cc2)nc2ccc(-c3ccc4c(c3)OCO4)cc12)N1CCCC1CN1CCCC1` (stereo not shown) [Compound 439] is below 1000 nM; for `O=C(c1cc(Cc2ccc(N3CCN(c4ccncc4)CC3)cc2)nc2ccc(-c3ccc4c(c3)OCO4)cc12)N1CCCC1CN1CCCC1` (stereo not shown) [Compound 440] it is below 1000 nM.
The figure for `CN(C)CCCN1CCN(c2ccc(Cc3cc(C(=O)N4CCCC4CN4CCCC4)c4cc(-c5ccc6c(c5)OCO6)ccc4n3)cc2)CC1` (stereo not shown) [Compound 441] is below 1000 nM; for `CN(C)CCN1CCN(c2ccc(Cc3cc(C(=O)N4CCCC4CN4CCCC4)c4cc(-c5ccc6c(c5)OCO6)ccc4n3)cc2)CC1` (stereo not shown) [Compound 442] it is below 1000 nM; for `O=C(c1cc(Cc2ccc(N3CCN(Cc4ccncc4)CC3)cc2)nc2ccc(-c3ccc4c(c3)OCO4)cc12)N1CCCC1CN1CCCC1` (stereo not shown) [Compound 443] it is below 1000 nM.
Regarding `O=C(c1cc(Cc2ccc(N3CCN(CCc4ccncc4)CC3)cc2)nc2ccc(-c3ccc4c(c3)OCO4)cc12)N1CCCC1CN1CCCC1` (stereo not shown) [Compound 444], the IC50 was below 1000 nM.
With `O=C(c1cc(Cc2ccc(N3CCC4(CC3)CNC4)cc2)nc2ccc(-c3ccc4c(c3)OCO4)cc12)N1CCCC1CN1CCCC1` (stereo not shown) [Compound 445], the IC50 was below 1000 nM.
The figure for `O=C(c1cc(Cc2ccc(N3CCC4(CCNC4)CC3)cc2)nc2ccc(-c3ccc4c(c3)OCO4)cc12)N1CCCC1CN1CCCC1` (stereo not shown) [Compound 446] is below 1000 nM; for `O=C(c1cc(Cc2ccc(N3CCC4(CCNCC4)CC3)cc2)nc2ccc(-c3ccc4c(c3)OCO4)cc12)N1CCCC1CN1CCCC1` (stereo not shown) [Compound 447] it is below 1000 nM.
For the molecule `CN1CCN(c2ccc(Nc3cc(Nc4ccc(N5CCN(C)CC5)cc4)c4cc(-c5ccc6c(c5)OCO6)ccc4n3)cc2)CC1` [Compound 448], the IC50 was below 1000 nM.
As for `c1cc(N2CCNCC2)ccc1Nc1cc(Nc2ccc(N3CCNCC3)cc2)c2cc(-c3ccc4c(c3)OCO4)ccc2n1` [Compound 449], the IC50 is below 1000 nM.
